The values below come from PubChem BioAssay AID1259407 (Chemical Carcinogenesis Research Information System (CCRIS), 2018).

The data set has as its system CCRIS mutagenicity, Ames/micronucleus/aberration tests. Briefly: CCRIS mutagenicity studies.
Where [1] appears, read: Test System: AMES SALMONELLA TYPHIMURIUM, Strain/Indicator: TA98, Metabolic Activation: NONE, Method: STANDARD PLATE.
Where [2] appears, read: Test System: AMES SALMONELLA TYPHIMURIUM, Strain/Indicator: TA98, Metabolic Activation: RAT, LIVER, S-9, AROCLOR 1254, Method: STANDARD PLATE.
Setting [3] is: Test System: AMES SALMONELLA TYPHIMURIUM, Strain/Indicator: TA100, Metabolic Activation: NONE, Method: STANDARD PLATE.
[4] abbreviates: Test System: AMES SALMONELLA TYPHIMURIUM, Strain/Indicator: TA100, Metabolic Activation: RAT, LIVER, S-9, AROCLOR 1254, Method: STANDARD PLATE.
Where [5] appears, read: Test System: AMES SALMONELLA TYPHIMURIUM, Strain/Indicator: TA102, Metabolic Activation: NONE, Method: STANDARD PLATE.

Activity calls are given as the source filed them. How the calls were made is not given here.

With `CC(=O)Nc1ccc([C@@H]2O[C@@H]2C(=O)c2ccccc2)cc1`, the mutagenic call is “inactive; negative” under setting [1], “active; positive” under setting [2], “active; positive” under setting [3] and “active; positive” under setting [4].
Regarding `CCc1cccc(NC(=O)c2csc([N+](=O)[O-])c2)c1`, the mutagenic call is “active; positive” under setting [1] and “active; positive” under setting [3].
On to `c1cc2ccc3cccc4ncc(c1)c2c34`, for which the mutagenic call is, setting by setting: under setting [2], “active; positive”; under setting [4], “active; positive”.
With `c1c[nH]cn1`, the mutagenic call (Test System: AMES SALMONELLA TYPHIMURIUM, Strain/Indicator: TA97, Metabolic Activation: NONE, Method: STANDARD PLATE) was “inactive; negative”; the mutagenic call (Test System: AMES SALMONELLA TYPHIMURIUM, Strain/Indicator: TA97, Metabolic Activation: RAT, LIVER, S-9, PHENOBARBITAL AND BETA-NAPHTHOFLAVONE, Method: STANDARD PLATE) was “inactive; negative”; the mutagenic call under setting [1] was “inactive; negative”; the mutagenic call (Test System: AMES SALMONELLA TYPHIMURIUM, Strain/Indicator: TA98, Metabolic Activation: RAT, LIVER, S-9, PHENOBARBITAL AND BETA-NAPHTHOFLAVONE, Method: STANDARD PLATE) is “inactive; negative”; the mutagenic call under setting [3] is “inactive; negative”; the mutagenic call (Test System: AMES SALMONELLA TYPHIMURIUM, Strain/Indicator: TA100, Metabolic Activation: RAT, LIVER, S-9, PHENOBARBITAL AND BETA-NAPHTHOFLAVONE, Method: STANDARD PLATE) was “inactive; negative”. The mutagenic call is “inactive; negative” under setting [5]; “inactive; negative” (Test System: AMES SALMONELLA TYPHIMURIUM, Strain/Indicator: TA102, Metabolic Activation: RAT, LIVER, S-9, PHENOBARBITAL AND BETA-NAPHTHOFLAVONE, Method: STANDARD PLATE); “inactive; negative” (Test System: UDS RAT HEPATOCYTES, Strain/Indicator: THY INCORP, Metabolic Activation: NONE, Method: AUTORADIOGRAPHY).
With `Fc1cnc2c(c1)cc(F)c1ccccc12`, the mutagenic call (Test System: AMES SALMONELLA TYPHIMURIUM, Strain/Indicator: TA100, Metabolic Activation: RAT, LIVER, S-9, PHENOBARBITAL AND 5,6-BENZOFLAVONE, Method: PREINCUBATION) is “inactive; negative”.
Consider `O=[N+]([O-])OCC(CO[N+](=O)[O-])O[N+](=O)[O-]`, for which the mutagenic call is “inactive; negative” (Test System: AMES SALMONELLA TYPHIMURIUM, Strain/Indicator: TA100(NR), Metabolic Activation: NONE, Method: STANDARD PLATE); “inactive; negative” under setting [3]; “inactive; negative” (Test System: AMES SALMONELLA TYPHIMURIUM, Strain/Indicator: TA102, Metabolic Activation: HAMSTER, LIVER, S-9, AROCLOR 1254, Method: STANDARD PLATE); “inactive; negative” under setting [5]; “active; positive” (Test System: AMES SALMONELLA TYPHIMURIUM, Strain/Indicator: TA1535, Metabolic Activation: HAMSTER, LIVER, S-9, AROCLOR 1254, Method: STANDARD PLATE); “active; positive” (Test System: AMES SALMONELLA TYPHIMURIUM, Strain/Indicator: TA1535, Metabolic Activation: NONE, Method: STANDARD PLATE). The mutagenic call by setting is: (Test System: AMES SALMONELLA TYPHIMURIUM, Strain/Indicator: TA1538, Metabolic Activation: NONE, Method: STANDARD PLATE) “inactive; negative”; (Test System: AMES SALMONELLA TYPHIMURIUM, Strain/Indicator: TA1975, Metabolic Activation: NONE, Method: STANDARD PLATE) “inactive; negative”; (Test System: AMES SALMONELLA TYPHIMURIUM, Strain/Indicator: YG1026, Metabolic Activation: NONE, Method: STANDARD PLATE) “inactive; negative”.
